The nature of the data set: in vitro. Particulars: human, hela cells, % viability.
With `CC1CC(=O)Nc2ccccc2N1C(=O)Cn1c(=O)cnc2ccccc21` (centres unmarked) [CBK297116], the viability at 28.5 h, 10 µM turned out to be 95%. For the molecule `Cc1c(C(=O)O)sc(S(=O)(=O)N2CCN(C(=O)c3ccc(F)cc3)CC2)c1C(=O)O` [CBK297118], the viability at 28.5 h, 10 µM was 107%. For `Cc1ccc(C(=O)N2CCN(S(=O)(=O)c3sc(C(=O)O)c(C)c3C(=O)O)CC2)cc1` [CBK297120] the value was 91.1%.

Take `Cc1c(C(=O)O)sc(S(=O)(=O)N2CCN(C(=O)CC3CCCC3)CC2)c1C(=O)O` [CBK297122]: the viability at 28.5 h, 10 µM came out at 101%. The result for `Cc1c(C(=O)O)sc(S(=O)(=O)N2CCN(C(=O)c3ccc(Cl)cc3)CC2)c1C(=O)O` [CBK297123] reads 96.9%.

`Cc1ccc2nc(Cn3cc(-c4cnn(Cc5ccccc5)c4)cn3)cn2c1` [CBK297125]: the viability at 28.5 h, 10 µM stood at 90.4%. With `COc1cccc(-c2noc(Cn3cnc4sccc4c3=O)n2)c1` [CBK297127], the viability at 28.5 h, 10 µM was 85.3%.

For the molecule `COc1ccc(S(=O)(=O)N2CCCCC2)cc1NC(=O)c1ccc(-c2nnn[nH]2)cc1` [CBK297128], the viability at 28.5 h, 10 µM was found to be 93%. In the case of `O=C(Cc1ccc2c(c1)CCCC2)Nc1cccc(-c2nnn[nH]2)c1` [CBK297129], the viability at 28.5 h, 10 µM is 114%. The result for `O=C(CCCc1nc2ccccc2c(=O)[nH]1)NC(Cc1ccc(O)cc1)C(=O)O` (centres unmarked) [CBK297130] reads 101%; that for `CC(CCc1ccccc1)NC(=O)C(C)Sc1nnc(-c2cccs2)n1C1CC1` (centres unmarked) [CBK297131], 89.5%. The result for `CCOCCCn1c(SCC(=O)NC(Cc2ccccc2)C(=O)O)nc2ccccc2c1=O` (centres unmarked) [CBK297132] reads 90.5%; that for `Cn1c(SCC(=O)Nc2cc(C(C)(C)C)no2)nnc1-c1ccc(C(C)(C)C)cc1` [CBK297133], 89.6%; that for `Cc1c(C(=O)O)sc(S(=O)(=O)N2CCN(C(=O)Cc3ccsc3)CC2)c1C(=O)O` [CBK297134], 89.8%. As to `Cc1c(C(=O)O)sc(S(=O)(=O)N2CCN(C(=O)Cc3ccccc3Cl)CC2)c1C(=O)O` [CBK297137], the viability at 28.5 h, 10 µM came out at 107%. On to `CCc1ccc(CCC(=O)N2CCN(S(=O)(=O)c3sc(C(=O)O)c(C)c3C(=O)O)CC2)cc1` [CBK297138], for which the viability at 28.5 h, 10 µM turned out to be 111%. For `O=C(O)c1cn(C2CC2)c2cc(N3CCN(C(=O)C4CCCO4)CC3)c(F)cc2c1=O` (centres unmarked) [CBK297139] the value was 97.7%; for `Cc1c(C(=O)O)sc(S(=O)(=O)N2CCN(C(=O)CC(C)c3ccccc3)CC2)c1C(=O)O` (centres unmarked) [CBK297143], 97.4%. The result for `CSc1ccccc1C(=O)N1CCN(S(=O)(=O)c2sc(C(=O)O)c(C)c2C(=O)O)CC1` [CBK297149] reads 90.4%; that for `CC1CCN(S(=O)(=O)c2ccc(C(=O)NC(C(=O)O)C(C)O)cc2)CC1` (centres unmarked) [CBK297151], 99.1%; that for `Cc1ccc(-c2cc(C(=O)N3CCN(C4CCS(=O)(=O)C4)CC3)c3ccccc3n2)cc1` (centres unmarked) [CBK297153], 112%. The result for `Cc1nnc(CSc2ncc(-c3ccc(Cl)cc3)n2Cc2ccccc2)o1` [CBK297154] reads 103%; that for `COc1ccc(CN2CCN(C(=O)NS(=O)(=O)c3ccc(C)cc3)CC2)cc1F` [CBK297156], 98.5%. As for `Clc1cc(CSc2nnnn2-c2ccccc2)cc2c1OCCCO2` [CBK297159], the viability at 28.5 h, 10 µM is 92.5%.

With `Cc1ccc(C(=O)O)cc1NC(=O)CSc1nc2scc(C3CC3)c2c(=O)n1-c1ccccc1` [CBK297481], the viability at 28.5 h, 10 µM was 107%. As for `Cc1cc(C)n2nc(SCc3nc4sc(C(=O)O)c(C)c4c(=O)[nH]3)nc2n1` [CBK297482], the viability at 28.5 h, 10 µM amounted to 88.1%. `O=[N+]([O-])c1ccc(Sc2nnc(-c3cccs3)n2CC2CCCO2)cn1` (centres unmarked) [CBK297483]: the viability at 28.5 h, 10 µM was determined as 94.6%. For the molecule `COc1cc(C=CC(=O)O)cc(S(=O)(=O)Nc2ccccc2C(=O)NCCc2ccccc2)c1OC` [CBK297487], the viability at 28.5 h, 10 µM came out at 99.5%. For `O=C(Cn1nnc2ccccc21)NC(c1ccccc1)c1ccccc1` [CBK297488] the value was 110%; for `CC[C@H](C)[C@H](NC(N)=O)C(=O)Nc1ccc(F)c([N+](=O)[O-])c1` [CBK297489], 97.1%; for `Cc1ccc(C(=O)O)cc1NS(=O)(=O)c1ccc2c(c1)OCCO2` [CBK297497], 90.7%. The result for `COc1cccc(NCc2nnc(SCC(=O)O)n2C2CCCCC2)c1` [CBK297499] reads 95.6%. For `Cn1nc(C(=O)NCCSc2n[nH]c(=O)[nH]c2=O)c2ccccc2c1=O` [CBK297501] the value was 79.1%; for `COc1ccc(C2CC(c3ccc4ccccc4c3)=NN2C(=O)COc2ccccc2C(=O)O)cc1` (centres unmarked) [CBK297503], 102%. Turning to `Cc1cc(C(=O)Cn2nc(C(=O)O)c3ccccc3c2=O)c(C)n1Cc1ccccc1Cl` [CBK297504], the viability at 28.5 h, 10 µM was determined as 111%.

With `COc1ccc(CCNC(=O)c2ccccc2NS(=O)(=O)c2cc(C(=O)O)ccc2OC)cc1` [CBK297506], the viability at 28.5 h, 10 µM worked out at 90.8%.

As for `CCOc1ccc2cc(C3CC(c4ccc(C)cc4)=NN3C(=O)CCC(=O)O)c(Cl)nc2c1` (centres unmarked) [CBK297508], the viability at 28.5 h, 10 µM is 87.2%.

`Cc1cccc(NC(=O)[C@@H](NC(=O)c2ccccc2F)C(C)C)c1C` [CBK297509]: the viability at 28.5 h, 10 µM was 85.4%. For `Cc1[nH]c2ccccc2c1C(=O)CSc1nc(N)cc(=O)[nH]1` [CBK297511] the value was 103%; for `CCOc1ccc(-n2c(SCC(=O)Nc3cc(C(=O)O)ccc3Cl)nc3ccccc3c2=O)cc1` [CBK297512], 109%. Take `O=C(CSc1ncc(C(=O)O)n1-c1ccc(F)cc1)NCCc1ccc(F)cc1` [CBK297513]: the viability at 28.5 h, 10 µM came to 93.3%. The result for `O=C(Nc1ccc(Cl)c(Cl)c1)N1CCN(c2n[nH]c(=O)[nH]c2=O)CC1` [CBK297514] reads 89.4%; that for `Cc1ccc2c(CSc3nc(N)cc(N)n3)cc(=O)oc2c1C` [CBK297519], 87.7%. The result for `C=CCn1c(SCC(=O)Nc2nc3ccc(OCC)cc3s2)nc2cc(C(=O)O)ccc2c1=O` [CBK297520] reads 113%; that for `CN(c1ccccc1)S(=O)(=O)c1ccc(C(=O)NCc2cccnc2)cc1` [CBK297522], 95.5%; that for `CCCCOc1ccc(C=Cc2nc3sc(C(=O)O)c(C)c3c(=O)[nH]2)cc1` [CBK297524], 86.5%.

Turning to `Cc1ccc2[nH]c(SCC(=O)Nc3ccc(C(=O)O)cc3)nc2c1` [CBK297526], the viability at 28.5 h, 10 µM came to 85.7%. Turning to `COc1ccc(-c2nnc(SCC(=O)NC(=O)c3ccccc3)n2CC(C)C)cc1` [CBK297527], the viability at 28.5 h, 10 µM amounted to 101%. For `Cc1nc2sc(C(=O)OCc3cc(=O)oc4cc5c(cc34)CCC5)c(C)c2c(=O)[nH]1` [CBK297528] the value was 114%; for `Cc1ccc(C)c(Sc2ccc(S(=O)(=O)Nc3ccc(C(=O)O)cc3)cc2)c1` [CBK297529], 109%.

Consider `CC1(C)C(=O)Nc2ccccc2N1C(=O)COc1ncnc2sc3c(c12)CCC3` [CBK297530], for which the viability at 28.5 h, 10 µM is 89.9%. As for `CC(C)NS(=O)(=O)c1ccc(NS(=O)(=O)c2ccc(F)c(C(=O)O)c2)cc1` [CBK297533], the viability at 28.5 h, 10 µM was 93.6%. For `CC(=O)Nc1ccc2c(CSc3nnc(-c4ccco4)n3C)cc(=O)oc2c1` [CBK297534] the value was 91.7%; for `O=C(COc1ccc(C(=O)c2ccc(F)cc2)cc1)c1ccc2c(c1)OCCO2` [CBK297536], 111%. In the case of `Cc1c(C(=O)O)sc2nc(C=Cc3ccc(OCCC(C)C)cc3)[nH]c(=O)c12` [CBK297539], the viability at 28.5 h, 10 µM is 94%.

As for `CSc1nc2ccc(NS(=O)(=O)c3ccc(Cl)c(C(=O)O)c3)cc2s1` [CBK297541], the viability at 28.5 h, 10 µM was found to be 82.6%. The result for `O=C(Cn1cnc2ccc([N+](=O)[O-])cc2c1=O)Nc1ccc(C(=O)O)cc1` [CBK297542] reads 85.5%; that for `COc1ccc(O)c(C(=O)c2cnn(C(=O)c3ccc(C)cc3)c2)c1` [CBK297546], 86.3%. For `CCCn1c(SCC(=O)NCc2ccc(OC)cc2)n[nH]c1=O` [CBK297549] the value was 90.2%; for `CC(Sc1ccc(S(=O)(=O)N2CCN(C)CC2)cn1)C(=O)Nc1ccc(C(C)(C)C)cc1` (centres unmarked) [CBK297551], 106%; for `Cc1nn(-c2ccccc2)c2sc(C(=O)N3CCN(C(=O)c4ccccc4)CC3)cc12` [CBK297554], 96.1%. For `CCCn1c(N)c(C(=O)CSc2ncnc3sc4c(c23)CCCC4)c(=O)[nH]c1=O` [CBK297556] the value was 77.8%; for `CC(C)(C)c1cc(NC(=O)Cn2nc(C(=O)O)c3ccccc3c2=O)n(-c2ccccc2)n1` [CBK297557], 85.1%. `Cc1nc(-c2ccc(CCNC(=O)c3cc(O)nc4ccccc34)s2)cs1` [CBK297720]: the viability at 28.5 h, 10 µM was found to be 94.2%. The result for `COc1cc(Nc2cc(C)nc3ncnn23)ccc1N1CCCC1=O` [CBK297725] reads 102%; that for `O=C(O)c1cccc(-c2nc(-c3ccc(S(=O)(=O)N4CCOCC4)cc3)cs2)c1` [CBK297730], 85.8%.

`O=C(O)c1csc(S(=O)(=O)Nc2ccc(Br)cc2Cl)c1` [CBK297731]: the viability at 28.5 h, 10 µM stood at 101%. For `Cn1ncc2c(SCc3cc4c(cc3Br)OCCO4)ncnc21` [CBK297732] the value was 104%; for `COc1ccc(CC(=O)N2CCN(C(C)c3nc4ccccc4s3)CC2)cc1F` (centres unmarked) [CBK297733], 95.9%. The result for `CCN(c1ccc(NC(=O)Cn2nc(C(=O)O)c3ccccc3c2=O)cc1)C(C)C` [CBK297734] reads 94.5%; that for `CN(C)C(=O)CCc1nc(-c2ccccn2)no1` [CBK297735], 88.3%; that for `NC(=O)c1ccc(C(=O)OCc2ccc(-c3ccccc3)cc2)cc1` [CBK297736], 95.7%. For `Cc1cc(C(=O)Nc2nncs2)c2ccc(F)cc2n1` [CBK297738] the value was 85.3%. Take `O=C(NC1CCN(c2ncccn2)CC1)c1cccnc1O` [CBK297739]: the viability at 28.5 h, 10 µM came to 99.7%.

The record behind these values is article PMC12040169 (PLOS Biology, 2025).
